Results taken from the NIST ThermoML archive (doi:10.1016/j.jct.2015.11.008).
Numbers after ± are expanded uncertainties.

Experiments:
[1] = xn = mol fraction of the nth substance listed; conditions: 298.15 K, 101 kPa, Liquid; for mass density: Vibrating tube method
[2] = 298.15 K, 101.33 kPa, Liquid; for mass density: Vibrating tube method

CCCC[n+]1ccn(C)c1.O=S(=O)([N-]S(=O)(=O)C(F)(F)F)C(F)(F)F + O
viscosity [mPa·s], [1]
Conditions | x2 = 0.00078 | x2 = 0.00473 | x2 = 0.0101 | x2 = 0.01864 | x2 = 0.05002 | x2 = 0.1001
Concentric cylinders viscometry | 50.9 ± 2.1 | 50.6 ± 2.1 | 49.9 ± 2 | 49.3 ± 2 | 45.9 ± 1.9 | 41.7 ± 1.7
Falling or rolling sphere viscometry | 51.5 ± 2.1 | 50.8 ± 2.1 | 50.5 ± 2.1 | 49.4 ± 2.1 | 46.8 ± 2 | 42.3 ± 1.8

[1]
Conditions | mass density [kg/m3]
x2 = 0.00078 | 1436.26 ± 2.1
x2 = 0.00473 | 1436.04 ± 2.1
x2 = 0.0101 | 1435.89 ± 2.1
x2 = 0.01864 | 1435.57 ± 2.1
x2 = 0.05002 | 1434.5 ± 2.1
x2 = 0.1001 | 1432.47 ± 2.1

CCCC[N+](C)(C)C.O=S(=O)([N-]S(=O)(=O)C(F)(F)F)C(F)(F)F [butyltrimethylammonium bis(trifluoromethylsulfonyl)imide] + O
viscosity [mPa·s], [1]
Conditions | x2 = 6e-05 | x2 = 0.00494 | x2 = 0.01002 | x2 = 0.01995 | x2 = 0.05012 | x2 = 0.09979
Concentric cylinders viscometry | 104 ± 4.3 | 103.5 ± 4.3 | 101.4 ± 4.2 | 98.6 ± 4.1 | 87.3 ± 3.6 | 73 ± 3
Falling or rolling sphere viscometry | 105 ± 5.1 | 103.6 ± 5 | 102.8 ± 5 | 99.6 ± 4.8 | 88.2 ± 4.1 | 73 ± 3.2

[1]
Conditions | mass density [kg/m3]
x2 = 6e-05 | 1392.89 ± 2.1
x2 = 0.00494 | 1392.7 ± 2.1
x2 = 0.01002 | 1392.61 ± 2.1
x2 = 0.01995 | 1392.23 ± 2.1
x2 = 0.05012 | 1391.7 ± 2.1
x2 = 0.09979 | 1390.15 ± 2

CCCC[n+]1ccn(C)c1.O=S(=O)([N-]S(=O)(=O)C(F)(F)F)C(F)(F)F
[2]
Conditions | viscosity [mPa·s]
Concentric cylinders viscometry | 50.9 ± 2.1
Falling or rolling sphere viscometry | 51.5 ± 2.1

Conditions | mass density [kg/m3]
[2] | 1436.3 ± 2.1

CCCCn1cc[n+](C)c1.F[B-](F)(F)F [1-butyl-3-methylimidazolium tetrafluoroborate]
[2]
Conditions | viscosity [mPa·s]
Concentric cylinders viscometry | 108 ± 4.5
Falling or rolling sphere viscometry | 111.9 ± 5.6

Conditions | mass density [kg/m3]
[2] | 1201.7 ± 2

CCCCn1cc[n+](C)c1.O=S(=O)([O-])C(F)(F)F [1-butyl-3-methylimidazolium trifluoromethanesulfonate]
[2]
Conditions | viscosity [mPa·s]
Concentric cylinders viscometry | 90.7 ± 3.8
Falling or rolling sphere viscometry | 92.8 ± 4.3

Conditions | mass density [kg/m3]
[2] | 1298.3 ± 2

CCCCn1cc[n+](C)c1.O=S(=O)([O-])C(F)(F)F [1-butyl-3-methylimidazolium trifluoromethanesulfonate] + O
viscosity [mPa·s], [1]
Conditions | x2 = 0.00022 | x2 = 0.00612 | x2 = 0.01 | x2 = 0.01738 | x2 = 0.04999 | x2 = 0.1003
Concentric cylinders viscometry | 90.7 ± 3.8 | 89.2 ± 3.7 | 88.2 ± 3.6 | 86.2 ± 3.6 | 79.7 ± 3.3 | 70.4 ± 2.9
Falling or rolling sphere viscometry | 92.7 ± 4.3 | 91.3 ± 4.2 | 89.6 ± 4.1 | 87.9 ± 4 | 81.3 ± 3.7 | 70.6 ± 3.1

[1]
Conditions | mass density [kg/m3]
x2 = 0.00022 | 1298.32 ± 2
x2 = 0.00612 | 1298.12 ± 2
x2 = 0.01 | 1297.98 ± 2
x2 = 0.01738 | 1297.72 ± 2
x2 = 0.04999 | 1296.84 ± 2
x2 = 0.1003 | 1295.4 ± 2

CCCCn1cc[n+](C)c1.F[B-](F)(F)F [1-butyl-3-methylimidazolium tetrafluoroborate] + O
viscosity [mPa·s], [1]
Conditions | x2 = 0.00062 | x2 = 0.005 | x2 = 0.00993 | x2 = 0.01995 | x2 = 0.04989 | x2 = 0.09965
Concentric cylinders viscometry | 108 ± 4.5 | 105.9 ± 4.4 | 103.7 ± 4.3 | 99.5 ± 4.1 | 87.9 ± 3.6 | 71.4 ± 2.9
Falling or rolling sphere viscometry | 111.9 ± 5.6 | 107.4 ± 5.3 | 106.5 ± 5.2 | 99.9 ± 4.8 | 89.6 ± 4.1 | 72.5 ± 3.2

[1]
Conditions | mass density [kg/m3]
x2 = 0.00062 | 1201.69 ± 2
x2 = 0.005 | 1201.55 ± 2
x2 = 0.00993 | 1201.36 ± 2
x2 = 0.01995 | 1201.1 ± 2
x2 = 0.04989 | 1200.18 ± 2
x2 = 0.09965 | 1198.59 ± 2

CCCC[n+]1ccc(C)cc1.O=S(=O)([N-]S(=O)(=O)C(F)(F)F)C(F)(F)F
[2]
Conditions | viscosity [mPa·s]
Concentric cylinders viscometry | 55.7 ± 2.3
Falling or rolling sphere viscometry | 56.1 ± 2.4

Conditions | mass density [kg/m3]
[2] | 1412.3 ± 2.1

CCCC[N+](C)(C)C.O=S(=O)([N-]S(=O)(=O)C(F)(F)F)C(F)(F)F [butyltrimethylammonium bis(trifluoromethylsulfonyl)imide]
[2]
Conditions | viscosity [mPa·s]
Concentric cylinders viscometry | 104.9 ± 4.4
Falling or rolling sphere viscometry | 104 ± 5

Conditions | mass density [kg/m3]
[2] | 1392.9 ± 2.1

CCCC[n+]1ccc(C)cc1.O=S(=O)([N-]S(=O)(=O)C(F)(F)F)C(F)(F)F + O
viscosity [mPa·s], [1]
Conditions | x2 = 0.00167 | x2 = 0.00513 | x2 = 0.01053 | x2 = 0.01985 | x2 = 0.04978 | x2 = 0.1002
Concentric cylinders viscometry | 55.7 ± 2.3 | 55.3 ± 2.2 | 54.8 ± 2.2 | 53.9 ± 2.2 | 50.4 ± 2 | 45.6 ± 1.9
Falling or rolling sphere viscometry | 56.1 ± 2.4 | 56 ± 2.3 | 55.1 ± 2.3 | 54.2 ± 2.3 | 51.3 ± 2.1 | 46 ± 1.9

[1]
Conditions | mass density [kg/m3]
x2 = 0.00167 | 1412.27 ± 2.1
x2 = 0.00513 | 1412.02 ± 2.1
x2 = 0.01053 | 1411.94 ± 2.1
x2 = 0.01985 | 1411.55 ± 2.1
x2 = 0.04978 | 1410.48 ± 2.1
x2 = 0.1002 | 1408.83 ± 2.1
